Several values for one entry are separate records, joined by “and”; a condition that tells them apart may be missing. Equal values may be shown once.
Assay: Accelerated and long term stability study of TTI-101 (Batch A, Batch B): HPLC assay, purity, impurities and water content after storage at 5° C., 25° C./60% RH, 30° C./65% RH or 40° C./75% RH
Format: physicochemical
Design: key to Impurity RRT 1.05: NQ: ≥0.02% and <0.05%; —: no peak
Experimental: Exemplary HPLC conditions: diluent was 0.1% trifluoroacetic acid (TFA) in acetonitrile, Mobile Phase A was 0.05% TFA in water, and Mobile Phase B was 0.05% TFA in acetonitrile, column (Agilent, Eclipse XDB-C18, 3.0×100 mm, particle size 1.8 μm), flow (0.425 mL/min), and detector (280 nm diode array).
Batch A was prepared analogously using Method 3 as described in Example 1. Batch B was prepared according to Method 5 as described in Example 1.
Samples of TTI-101 were stored at 5° C., 25° C./60% RH, 30° C./65% RH, or 40° C./75% RH. TTI-101 was stored in an LDPE bag enclosed with a Nylon cable tie and then transferred to another LDPE bag and enclosed with a Nylon cable tie. The enclosure was put into an HDPE bottle and closed with a polyethylene-lined polypropylene cap. The samples were stored under the above-identified conditions.
The samples were analyzed using HPLC with the exemplary conditions identified above. Relative retention time (RRT) for Compound 5 was about 0.83, Compound 4 was about 1.05-1.06, Compound 6 was about 1.15-1.17, and compound of formula (IV) was about 0.99.
• NA not applicable • NQ ≥0.02% and <0.05% • Avg average • Cmpd compound • — no peak • M month • RRT relative retention time

[1] = Storage 5° C., 4.5 M (25° C./60% RH) + 1.5 M (5° C.), Avg
[2] = Storage 5° C., 4.5 M (25° C./60% RH) + 1.5 M (5° C.), Prep P1-P2
[3] = Storage 5° C., 4.5 M (25° C./60% RH) + 1.5 M (5° C.), Prep P1-P2, listed as Batch B
[4] = Storage 5° C., 9 M, Prep P1-P2, listed as Batch B
[5] = Storage 25° C./60% RH, 0 M, Avg
[6] = Storage 25° C./60% RH, 0 M, Prep P1-P5
[7] = Storage 25° C./60% RH, 0 M, Prep P1-P5, listed as Batch B
[8] = Storage 25° C./60% RH, 1 M, Avg
[9] = Storage 25° C./60% RH, 1 M, Prep P1-P2
[10] = Storage 25° C./60% RH, 3 M, Avg
[11] = Storage 25° C./60% RH, 3 M, Prep P1-P2
[12] = Storage 25° C./60% RH, 3 M, Prep P1-P2, listed as Batch B
[13] = Storage 25° C./60% RH, 6 M, Avg
[14] = Storage 25° C./60% RH, 6 M, Prep P1-P2

For `COc1ccc(S(=O)(=O)Nc2cc(-c3c(O)ccc4ccccc34)c(O)c3ccccc23)cc1` [TTI-101], the “Water Content” value (Storage 5° C., 0 M, Avg) was 0.1%, the “Water Content” value (Storage 5° C., 0 M, Prep P1-P2) was 0.1% and the “Impurities Total” value (Storage 5° C., 0 M, Prep P1-P5) was 0.1 area %. For the same compound, the “Impurity RRT 0.86” value (Storage 5° C., 0 M, Prep P1-P5) was “NQ (≥0.02% and <0.05%)”, the “Impurity RRT 0.99” value (Storage 5° C., 0 M, Prep P1-P5) was “NQ (≥0.02% and <0.05%)” and the Purity (Storage 5° C., 0 M, Prep P1-P5) was 99.8%. For the same compound, the “Impurity RRT 1.16 (Cmp 6)” value (Storage 5° C., 0 M, Prep P1-P5, listed as Batch B) was 0.08 area % and 0.07 area %, the “Impurities Total” value [1] was 0.3 area % and the “Impurity RRT 0.80” value [1] was “NQ (≥0.02% and <0.05%)”. The “Impurity RRT 0.84” value [1] was “NQ (≥0.02% and <0.05%)”, the “Impurity RRT 0.87” value [1] was “NQ (≥0.02% and <0.05%)” and the “Impurity RRT 0.99” value [1] was 0.05 area %. The “Impurity RRT 1.02” value [1] was “NQ (≥0.02% and <0.05%)”, the “Impurity RRT 1.05” value [1] was “NQ (≥0.02% and <0.05%)” and the “Impurity RRT 1.06 (Cmpd 4)” value [1] was “NQ (≥0.02% and <0.05%)”. The “Impurity RRT 1.17 (Cmp 6)” value [1] was 0.26 area %, the “Impurity RRT 1.39” value [1] was “NQ (≥0.02% and <0.05%)” and the Purity [1] was 99.6%. The “Water Content” value [1] was less than 0.04%, the “Impurity RRT 0.84” value [2] was “NQ (≥0.02% and <0.05%)” and the “Impurity RRT 0.87” value [2] was “NQ (≥0.02% and <0.05%)”. The “Impurity RRT 1.02” value [2] was “NQ (≥0.02% and <0.05%)”, the “Impurity RRT 1.06 (Cmpd 4)” value [2] was “NQ (≥0.02% and <0.05%)” and the “Impurity RRT 1.39” value [2] was “NQ (≥0.02% and <0.05%)”. For the same compound, the “Water Content” value [2] was less than 0.04%, the “Impurities Total” value [3] was 0.2 area % and 0.3 area % and the “Impurity RRT 1.17 (Cmp 6)” value [3] was 0.25 area % and 0.27 area %. The Purity [3] was 99.6% and 99.5%, the Assay (Storage 5° C., 9 M, Avg) was 99.1% and the “Impurities Total” value (Storage 5° C., 9 M, Avg) was 0.3 area %. The “Impurity RRT 0.84” value (Storage 5° C., 9 M, Avg) was “NQ (≥0.02% and <0.05%)”, the “Impurity RRT 0.87” value (Storage 5° C., 9 M, Avg) was “NQ (≥0.02% and <0.05%)” and the “Impurity RRT 0.99” value (Storage 5° C., 9 M, Avg) was 0.11 area %. For the same compound, the “Impurity RRT 1.02” value (Storage 5° C., 9 M, Avg) was “NQ (≥0.02% and <0.05%)”, the “Impurity RRT 1.16 (Cmp 6)” value (Storage 5° C., 9 M, Avg) was 0.18 area % and the “Impurity RRT 1.39” value (Storage 5° C., 9 M, Avg) was “NQ (≥0.02% and <0.05%)”. For the same compound, the “Impurity RRT 1.47” value (Storage 5° C., 9 M, Avg) was “NQ (≥0.02% and <0.05%)”, the Purity (Storage 5° C., 9 M, Avg) was 99.6% and the “Water Content” value (Storage 5° C., 9 M, Avg) was 0.05%. The “Impurities Total” value (Storage 5° C., 9 M, Prep P1-P2) was 0.3 area %, the “Impurity RRT 0.87” value (Storage 5° C., 9 M, Prep P1-P2) was “NQ (≥0.02% and <0.05%)” and the “Impurity RRT 0.99” value (Storage 5° C., 9 M, Prep P1-P2) was 0.11 area %. For the same compound, the “Impurity RRT 1.02” value (Storage 5° C., 9 M, Prep P1-P2) was “NQ (≥0.02% and <0.05%)”, the “Impurity RRT 1.39” value (Storage 5° C., 9 M, Prep P1-P2) was “NQ (≥0.02% and <0.05%)” and the Purity (Storage 5° C., 9 M, Prep P1-P2) was 99.6%. For the same compound, the Assay [4] was 98.7% and 99.4%, the “Impurity RRT 1.16 (Cmp 6)” value [4] was 0.18 area % and 0.17 area % and the “Water Content” value [4] was 0.1% and 0.05%. For the same compound, the Assay [5] was 99.4%, the “Impurities Total” value [5] was 0.1 area % and the “Impurity RRT 0.61” value [5] was 0.05 area %. The “Impurity RRT 0.86” value [5] was “NQ (≥0.02% and <0.05%)”, the “Impurity RRT 0.88” value [5] was “NQ (≥0.02% and <0.05%)” and the “Impurity RRT 0.99” value [5] was “NQ (≥0.02% and <0.05%)”. For the same compound, the “Impurity RRT 1.16 (Cmp 6)” value [5] was 0.07 area %, the Purity [5] was 99.8% and the “Water Content” value [5] was 0.1%. For the same compound, the “Water Content” value (Storage 25° C./60% RH, 0 M, Prep P1-P2) was 0.1%, the “Impurities Total” value [6] was 0.1 area % and the “Impurity RRT 0.86” value [6] was “NQ (≥0.02% and <0.05%)”. The “Impurity RRT 0.99” value [6] was “NQ (≥0.02% and <0.05%)”, the Purity [6] was 99.8% and the Assay [7] was 99.0% and 100.5% and 99.3% and 99.5% and 98.8%. For the same compound, the “Impurity RRT 1.16 (Cmp 6)” value [7] was 0.08 area % and 0.07 area %, the “Impurities Total” value [8] was 0.5 area % and the “Impurity RRT 0.80” value [8] was “NQ (≥0.02% and <0.05%)”. The “Impurity RRT 0.84” value [8] was “NQ (≥0.02% and <0.05%)”, the “Impurity RRT 0.87” value [8] was “NQ (≥0.02% and <0.05%)” and the “Impurity RRT 0.99” value [8] was 0.10 area %. For the same compound, the “Impurity RRT 1.02” value [8] was “NQ (≥0.02% and <0.05%)”, the “Impurity RRT 1.05” value [8] was “NQ (≥0.02% and <0.05%)” and the “Impurity RRT 1.06 (Cmpd 4)” value [8] was “NQ (≥0.02% and <0.05%)”. The “Impurity RRT 1.17 (Cmp 6)” value [8] was 0.39 area %, the Purity [8] was 99.4% and the “Water Content” value [8] was 0.1%. The “Impurities Total” value [9] was 0.5 area %, the “Impurity RRT 0.80” value [9] was “NQ (≥0.02% and <0.05%)” and the “Impurity RRT 0.84” value [9] was “NQ (≥0.02% and <0.05%)”. The “Impurity RRT 0.87” value [9] was “NQ (≥0.02% and <0.05%)”, the “Impurity RRT 0.99” value [9] was 0.10 area % and the “Impurity RRT 1.02” value [9] was “NQ (≥0.02% and <0.05%)”. For the same compound, the “Impurity RRT 1.17 (Cmp 6)” value [9] was 0.39 area %, the Purity [9] was 99.4% and the “Water Content” value [9] was 0.1%. The Assay (Storage 25° C./60% RH, 1 M, Prep P1-P2, listed as Batch B) was 99.0% and 99.2%, the Assay [10] was 97.8% and the “Impurities Total” value [10] was 0.4 area %. For the same compound, the “Impurity RRT 0.48” value [10] was “NQ (≥0.02% and <0.05%)”, the “Impurity RRT 0.80” value [10] was “NQ (≥0.02% and <0.05%)” and the “Impurity RRT 0.84” value [10] was “NQ (≥0.02% and <0.05%)”. For the same compound, the “Impurity RRT 0.87” value [10] was “NQ (≥0.02% and <0.05%)”, the “Impurity RRT 0.99” value [10] was 0.09 area % and the “Impurity RRT 1.02” value [10] was “NQ (≥0.02% and <0.05%)”. The “Impurity RRT 1.05” value [10] was “—”, the “Impurity RRT 1.06 (Cmpd 4)” value [10] was “NQ (≥0.02% and <0.05%)” and the “Impurity RRT 1.17 (Cmp 6)” value [10] was 0.33 area %. For the same compound, the Purity [10] was 99.4%, the “Water Content” value [10] was 0.04% and the “Impurities Total” value [11] was 0.4 area %. The “Impurity RRT 0.80” value [11] was “NQ (≥0.02% and <0.05%)”, the “Impurity RRT 0.84” value [11] was “NQ (≥0.02% and <0.05%)” and the “Impurity RRT 0.87” value [11] was “NQ (≥0.02% and <0.05%)”. For the same compound, the “Impurity RRT 0.99” value [11] was 0.09 area %, the “Impurity RRT 1.02” value [11] was “NQ (≥0.02% and <0.05%)” and the “Impurity RRT 1.05” value [11] was “—”. For the same compound, the “Impurity RRT 1.17 (Cmp 6)” value [11] was 0.33 area %, the “Water Content” value [11] was 0.04% and the Assay [12] was 96.8% and 98.8%. The Purity [12] was 99.4% and 99.5%, the Assay [13] was 98.7% and the “Impurities Total” value [13] was 0.3 area %. For the same compound, the “Impurity RRT 0.80” value [13] was “NQ (≥0.02% and <0.05%)”, the “Impurity RRT 0.84” value [13] was “NQ (≥0.02% and <0.05%)” and the “Impurity RRT 0.87” value [13] was “NQ (≥0.02% and <0.05%)”. The “Impurity RRT 0.99” value [13] was 0.05 area %, the “Impurity RRT 1.02” value [13] was 0.05 area % and the “Impurity RRT 1.05” value [13] was “NQ (≥0.02% and <0.05%)”. For the same compound, the “Impurity RRT 1.06 (Cmpd 4)” value [13] was “NQ (≥0.02% and <0.05%)”, the “Impurity RRT 1.17 (Cmp 6)” value [13] was 0.24 area % and the “Impurity RRT 1.39” value [13] was “NQ (≥0.02% and <0.05%)”. For the same compound, the Purity [13] was 99.5%, the “Water Content” value [13] was less than 0.04% and the “Impurities Total” value [14] was 0.3 area %. The “Impurity RRT 0.80” value [14] was “NQ (≥0.02% and <0.05%)”.
